Measured values published in ChEMBL document CHEMBL5316334, “Structure-Based Design of Novel Alkynyl Thio-Benzoxazepinone Receptor-Interacting Protein Kinase-1 Inhibitors: Extending the Chemical Space from the Allosteric to ATP Binding Pockets” (J Med Chem, 2023).
Active and inactive are the calls of the source. The rule behind the calls is not given here.

Columns and labels:
[1] = molecular target: Receptor-interacting serine/threonine-protein kinase 3 (Homo sapiens) (UniProt Q9Y572); test: Inhibition of RIPK3 phosphorylation in TSZ (TNFalpha, Smac mimetic and z-VAD-FMK) induced-human HT-29 cells assessed as decrease in phosphorylated RIPK3 level pretreated with compound followed by TSZ-induction and measured after 6 hrs by immunoblotting analysis; format: cell-based; settings: dose 1.5-12 nM
Sequence of Receptor-interacting serine/threonine-protein kinase 3 (Homo sapiens) (Q9Y572 whole entry, looked up, the tested form may be a part): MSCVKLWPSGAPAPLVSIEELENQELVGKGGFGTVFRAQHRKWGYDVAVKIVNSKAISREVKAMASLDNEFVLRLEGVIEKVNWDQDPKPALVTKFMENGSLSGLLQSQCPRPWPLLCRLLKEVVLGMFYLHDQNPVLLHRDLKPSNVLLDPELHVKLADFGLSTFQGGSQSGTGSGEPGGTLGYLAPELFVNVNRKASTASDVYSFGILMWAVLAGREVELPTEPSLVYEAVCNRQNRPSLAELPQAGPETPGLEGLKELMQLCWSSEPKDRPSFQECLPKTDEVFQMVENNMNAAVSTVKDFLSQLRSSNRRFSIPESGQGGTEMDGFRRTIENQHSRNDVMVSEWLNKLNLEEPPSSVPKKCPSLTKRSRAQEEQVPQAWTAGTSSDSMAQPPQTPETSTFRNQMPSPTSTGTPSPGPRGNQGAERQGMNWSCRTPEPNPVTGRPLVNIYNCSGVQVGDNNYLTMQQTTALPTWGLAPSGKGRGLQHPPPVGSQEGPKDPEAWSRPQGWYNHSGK

[2] = molecular target: T1, Receptor-interacting serine/threonine-protein kinase 1 (Homo sapiens) (UniProt Q13546); test: Inhibition of RIPK1 phosphorylation in TSZ (TNFalpha, Smac mimetic and z-VAD-FMK) induced-human HT-29 cells assessed as decrease in phosphorylated RIPK1 level at 12 nM pretreated with compound followed by TSZ-induction and measured after 6 hrs by immunoblotting analysis; format: cell-based
T1 sequence (whole entry): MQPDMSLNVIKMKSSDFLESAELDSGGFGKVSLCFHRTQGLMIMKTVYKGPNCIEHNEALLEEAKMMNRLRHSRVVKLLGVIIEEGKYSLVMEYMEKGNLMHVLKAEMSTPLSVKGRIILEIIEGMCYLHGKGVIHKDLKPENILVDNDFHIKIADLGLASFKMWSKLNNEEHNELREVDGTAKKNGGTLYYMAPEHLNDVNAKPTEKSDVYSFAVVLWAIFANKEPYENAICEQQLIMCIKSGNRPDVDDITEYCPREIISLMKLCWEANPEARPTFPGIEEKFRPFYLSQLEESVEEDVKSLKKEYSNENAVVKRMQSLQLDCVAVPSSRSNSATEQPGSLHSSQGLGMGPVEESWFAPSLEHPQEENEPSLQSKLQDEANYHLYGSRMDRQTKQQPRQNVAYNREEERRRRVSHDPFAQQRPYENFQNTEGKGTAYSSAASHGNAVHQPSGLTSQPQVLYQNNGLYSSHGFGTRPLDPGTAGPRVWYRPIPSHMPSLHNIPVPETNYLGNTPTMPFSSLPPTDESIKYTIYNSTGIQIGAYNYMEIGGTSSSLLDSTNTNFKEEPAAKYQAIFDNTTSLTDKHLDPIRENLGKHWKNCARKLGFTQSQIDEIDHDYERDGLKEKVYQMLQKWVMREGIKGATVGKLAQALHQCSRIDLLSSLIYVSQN

[3] = test system: HT-29; test: Anti-necroptic activity in human HT-29 cells assessed as inhibition of TNFalpha and cycloheximide-induced necroptosis pretreated with compound followed by TNFalpha and cycloheximide-induction and measured after 24 hrs by Cell-titer-glo assay; format: functional, cell-based
[4] = test system: U-937; test: Anti-necroptic activity against human U-937 cells assessed as inhibition of TSZ-induced necroptosis at 100 nM pretreated with compound followed by TSZ induction and measured for 12 hrs by Cell-titer-glo assay; format: functional, cell-based
[5] = molecular target: T2, Receptor-interacting serine/threonine-protein kinase 1 (Homo sapiens, UniProt Q13546); test: Binding affinity to recombinant RIPK1 (unknown origin) assessed as dissociation constant by kinomescan assay
T2 sequence (Q13546 whole entry): T1 sequence (whole entry)

[6] = test system: HT-29; test: Cytotoxicity against human HT-29 cells assessed as reduction in cell viability measured for 16 to 24 hrs by Cell-titer-glo assay; format: functional; settings: time 16-24 hrs
[7] = test system: HT-29; test: Anti-necroptosis activity against human HT-29 cells assessed as inhibition of TSZ-induced necroptosis preincubated for 30 mins followed by compound addition and measured for 16 hrs by Cell-titer-glo assay; format: functional, cell-based
[8] = molecular target: T1, Receptor-interacting serine/threonine-protein kinase 1 (Homo sapiens); test: Inhibition of RIPK1 phosphorylation in TSZ (TNFalpha, Smac mimetic and z-VAD-FMK) induced-human HT-29 cells assessed as decrease in phosphorylated RIPK1 level pretreated with compound followed by TSZ-induction and measured after 6 hrs by immunoblotting analysis; format: cell-based; settings: dose 1.5-12 nM
[9] = molecular target: T1, Receptor-interacting serine/threonine-protein kinase 1 (Homo sapiens); test: Inhibition of RIPK1 phosphorylation in TSZ (TNFalpha, Smac mimetic and z-VAD-FMK) induced-human HT-29 cells assessed as decrease in phosphorylated RIPK1 level at 12 nM pretreated with compound followed by TSZ-induction by immunoblotting analysis; format: cell-based; settings: time 6.0 hrs, TDE = time-dependent effect
[10] = molecular target: Receptor-interacting serine/threonine-protein kinase 3 (Homo sapiens) (UniProt Q9Y572); test: Inhibition of RIPK3 phosphorylation […] (TNFalpha, Smac mimetic and z-VAD-FMK) induced-human HT-29 cells assessed as decrease in phosphorylated RIPK3 level at 12 nM pretreated with compound followed by TSZ-induction and measured after 6 hrs by immunoblotting analysis; format: cell-based
[11] = molecular target: T3, Mixed lineage kinase domain-like protein (Homo sapiens) (UniProt Q8NB16); test: Inhibition of MLKL phosphorylation in TSZ (TNFalpha, Smac mimetic and z-VAD-FMK) induced-human HT-29 cells assessed as decrease in phosphorylated MLKL level pretreated with compound followed by TSZ-induction and measured after 6 hrs by immunoblotting analysis; format: cell-based; settings: dose 1.5-12 nM
T3 sequence (whole entry): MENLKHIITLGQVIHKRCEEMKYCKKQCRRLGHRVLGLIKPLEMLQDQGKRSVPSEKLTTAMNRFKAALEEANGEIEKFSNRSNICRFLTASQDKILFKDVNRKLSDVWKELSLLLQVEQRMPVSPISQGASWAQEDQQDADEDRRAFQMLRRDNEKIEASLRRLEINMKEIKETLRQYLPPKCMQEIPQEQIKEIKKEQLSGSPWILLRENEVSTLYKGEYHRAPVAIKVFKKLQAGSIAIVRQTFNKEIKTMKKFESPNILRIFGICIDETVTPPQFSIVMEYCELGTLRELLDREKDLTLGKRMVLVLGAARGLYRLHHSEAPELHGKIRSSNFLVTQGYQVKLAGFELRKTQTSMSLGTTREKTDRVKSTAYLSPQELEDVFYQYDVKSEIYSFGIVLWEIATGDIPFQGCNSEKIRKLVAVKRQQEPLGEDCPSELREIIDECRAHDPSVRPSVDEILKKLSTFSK

[12] = molecular target: T3, Mixed lineage kinase domain-like protein (Homo sapiens); test: Inhibition of MLKL phosphorylation in TSZ (TNFalpha, Smac mimetic and z-VAD-FMK) induced-human HT-29 cells assessed as decrease in phosphorylated MLKL level at 12 nM pretreated with compound followed by TSZ-induction by immunoblotting analysis; format: cell-based; settings: time 2-6 hrs, TDE = time-dependent effect
[13] = test system: Mus musculus; test: Anti-necroptic activity against TNFalpha-induced C57BL/6 mouse serum assessed as reduction in IL-1beta level at 5 mg/kg, IG pretreated with compound followed by TNFalpha-stimulation for 4 hrs; format: functional, organism-based
[14] = test system: Mus musculus; test: Anti-necroptic activity against mTNFalpha induced C57BL/6 mouse systemic inflammatory response syndrome model assessed as increase in survival rate 5 mg/kg, IG pretreated with compound for 1 hr followed by mTNFalpha injection and measured after 15 mins; format: functional; settings: time 75 min, 1.25 h
[15] = test system: Mus musculus; test: Anti-necroptic activity against mTNFalpha induced C57BL/6 mouse systemic inflammatory response syndrome model assessed as increase in survival rate 15 mg/kg, IG pretreated with compound for 1 hr followed by mTNFalpha injection and measured after 15 mins; format: functional; settings: time 75 min, 1.25 h
[16] = test system: Mus musculus; test: Anti-necroptic activity against TNFalpha-induced C57BL/6 mouse systemic inflammatory response syndrome model assessed as protection of body temperature at 20 mg/kg, IG pretreated with compound followed by TNFalpha-stimulation and measured after 2 to 3 hrs by thermometer analysis; format: functional, organism-based; settings: time 2-3 hrs
[17] = test system: HT-29; test: Inhibition of RIPK1-RIPK3-MLKL pathway in TSZ induced human HT-29 cells assessed as reduction in necrosome formation at 12 nM measured after 6 hrs by Western blot analysis; format: cell-based
[18] = molecular target: T3, Mixed lineage kinase domain-like protein (Homo sapiens); test: Inhibition of MLKL phosphorylation […] (TNFalpha, Smac mimetic and z-VAD-FMK) induced-human HT-29 cells assessed as decrease in phosphorylated MLKL level at 12 nM pretreated with compound followed by TSZ-induction and measured after 6 hrs by immunoblotting analysis; format: cell-based
[19] = test system: Mus musculus; test: Anti-necroptic activity against mTNFalpha induced C57BL/6 mouse systemic inflammatory response syndrome model assessed as increase in survival rate 10 mg/kg, IG pretreated with compound for 1 hr followed by mTNFalpha injection and measured after 15 mins; format: functional; settings: time 75 min, 1.25 h
[20] = test system: HT-29; test: Cytotoxicity against human HT-29 cells assessed as reduction in cell viability at 100 uM measured for 16 to 24 hrs by Cell-titer-glo assay; format: functional, cell-based; settings: time 16-24 hrs
[21] = molecular target: Receptor-interacting serine/threonine-protein kinase 3 (Homo sapiens) (UniProt Q9Y572); test: Inhibition of RIPK3 phosphorylation in TSZ (TNFalpha, Smac mimetic and z-VAD-FMK) induced -human HT-29 cells assessed as decrease in phosphorylated RIPK3 level at 12 nM pretreated with compound followed by TSZ-induction by immunoblotting analysis; format: cell-based; settings: time 2-6 hrs, TDE = time-dependent effect
[22] = test system: Mus musculus; test: Anti-necroptic activity against TNFalpha-induced C57BL/6 mouse serum assessed as reduction in IL-6 level at 5 mg/kg, IG pretreated with compound followed by TNFalpha-stimulation for 4 hrs; format: functional, organism-based
[23] = test system: L929; test: Anti-necroptic activity against mouse L929 cells assessed as inhibition of TNFalpha/z-VAD-FMK-induced necroptosis pretreated with compound followed by TNFalpha/z-VAD-FMK-induction and measured after 24 hrs by Cell-titer-glo assay; format: functional, cell-based; settings: dose 0.02-10 µM
[24] = Half life in mouse; format: ADME, organism-based; settings: in vivo
[25] = test system: Mus musculus; test: Anti-necroptic activity against TNFalpha-induced C57BL/6 mouse serum assessed as reduction in IL-6 level at 20 mg/kg, IG pretreated with compound followed by TNFalpha-stimulation for 4 hrs; format: functional, organism-based
[26] = test system: Mus musculus; test: Anti-necroptosis activity against TNFalpha-induced C57BL/6 mouse systemic inflammatory response syndrome model assessed as protection of body temperature at 5 to 20 mg/kg, IG pretreated with compound followed by TNFalpha-stimulation and measured after 2 to 3 hrs by thermometer analysis; format: functional, organism-based; settings: dose 5-20 mg/kg, time 2-3 hrs
[27] = test system: HT-29; test: Anti-necroptosis activity against human HT-29 cells assessed as inhibition of TSZ-induced necroptosis pretreated with compound followed by TSZ induction and measured for 12 hrs by Cell-titer-glo assay; format: functional, cell-based; settings: dose 0.63-100 nM
[28] = test system: Mus musculus; test: Anti-necroptic activity against TNFalpha-induced C57BL/6 mouse serum assessed as reduction in IL-1beta level at 20 mg/kg, IG pretreated with compound followed by TNFalpha-stimulation for 4 hrs; format: functional, organism-based
[29] = test system: Mus musculus; test: Anti-necroptic activity against mTNFalpha induced C57BL/6 mouse systemic inflammatory response syndrome model assessed as increase in survival rate 20 mg/kg, IG pretreated with compound for 1 hr followed by mTNFalpha injection and measured after 15 mins; format: functional; settings: time 75 min, 1.25 h

SMILES | inhibition [1] | inhibition [2] | Activity [3] | Activity [4] | Kd [5] | CC50 [6] | EC50 [7] | inhibition [8] | inhibition [9] | inhibition [10] | inhibition [11] | inhibition [12] | Activity [14] | Activity [16] | inhibition [17] | inhibition [18] | Activity [19] | Activity [20] | inhibition [21] | Activity [23] | other results
CN1C(=S)[C@@H](NC(=O)c2n[nH]c(Cc3ccccc3)n2)COc2ccc(C#Cc3cccc(C#N)c3)cc21 | Dose-Dependent Effect | Active | inactive | Active | 70 nM | > 100000 nM | 3.2 nM | Dose-Dependent Effect | Tde | Active | Dose-Dependent Effect | Tde | 58% | Active | Active | Active | 83% | inactive | Tde | Dose-Dependent Effect | Activity [13]: Active; Activity [15]: 100%; Activity [22]: Active
CN1C(=O)C(Cc2c[nH]c3ccccc23)NC1=S (configuration not stated) [NECROSTATIN] | – | – | – | – | – | – | – | – | – | – | – | – | – | – | – | – | – | – | – | – | half-life [24]: < 5 min
C#Cc1ccc2c(c1)N(C)C(=S)[C@@H](NC(=O)c1n[nH]c(Cc3ccccc3)n1)CO2 | Dose-Dependent Effect | Active | inactive | Active | 9.7 nM | > 100000 nM | 3.7 nM | Dose-Dependent Effect | Tde | Active | Dose-Dependent Effect | Tde | 66% | Active | Active | Active | 83% | – | Tde | Dose-Dependent Effect | Activity [25]: Active; Activity [26]: Active; Activity [27]: Dose-Dependent Effect; Activity [28]: Active; Activity [29]: 100%
Cc1ccc(C#Cc2ccc3c(c2)N(C)C(=S)[C@@H](NC(=O)c2n[nH]c(Cc4ccccc4)n2)CO3)cc1 | – | – | – | – | – | > 100000 nM | 17.4 nM | – | – | – | – | – | – | – | – | – | – | inactive | – | – | Activity [27]: Dose-Dependent Effect
